Results: patent US20120220600A1, “N-Oxide of 3-(2,6-dichloro-3,5-dimethoxy-phenyl) -1--1-methyl-urea” (priority 2009, published 2012)
Converted amounts (≈) assume the structure as drawn.

How the values were obtained:
hERG channels = target: T1, hERG channels (Homo sapiens, UniProt Q12809); experiment: hERG radioligand binding assay ([3H]dofetilide competition); conditions: [3H]dofetilide binding, HEK293 cell membranes stably transfected with hERG
T1 construct: expressed in transfected cells; host or cells: HEK293 (stably transfected), membrane preparation
Description: The ability of Compounds 1 and 2 to inhibit the hERG (potassium channel) activity was tested using a radioligand binding assay in which test compounds competed for [^3H]dofetilide binding to a membrane preparation of HEK293 cell membranes stably transfected with hERG channels.

Caco-2 cell monolayers = experiment: Permeability across Caco-2 cell monolayers; format: in vitro ADME, human; conditions: for Mechanism: Caco-2, based on B-A/A-B and clogP; for Permeability Ranking: Caco-2, based on Papp A-B
Description: (§1) The permeability of Compounds 1 and 2 across the intestinal barrier and the involvement of drug efflux transporters such as P-glycoprotein (P-gp, MDR-1) were assessed in vitro using the Caco-2 cell line. […] Caco-2 cells were seeded on PET (polyethylene terephthalate) filters in a 96 well format and cultured for 18-25 days to develop monolayers. Test compound solutions (10 μM in transport buffer) were added to either the apical (A) or basolateral (B) side of the Caco-2 cell monolayer to measure the membrane permeability from the A to B compartments [Papp(A-B)] or from the B to A compartments [Papp(B-A]. The assay was carried out in HBSS (Hank's Balanced Salts) buffer, pH 7.4 (for both sides) for 120 min at 37° C. Samples were taken from apical or basolateral compartments at scheduled times (0 min and 120 min) and quantified by LC/MS/MS. The results are presented in Table 4.

[1] = Permeability across Caco-2 cell monolayers; format: in vitro ADME, human; conditions: human, Caco-2, 10 μM, pH 7.4, 120 min; for Papp A→B at 120 min, 10 μM / Papp B→A at 120 min, 10 μM: 37° C.; for Papp A→B at 120 min, 10 μM: apical to basolateral; for Papp B→A at 120 min, 10 μM: basolateral to apical; for efflux ratio at 120 min, 10 μM: read-out: Papp B-A/A-B
Description: as §1

[2] = In vitro metabolic stability in monkey liver microsomes; format: in vitro ADME; conditions: for microsomal CLint at 1 μM: monkey, liver microsomes
Description: (§2) The metabolism of drugs occurs mainly in the liver, which contains a wide variety of metabolic enzymes at concentrations higher than those observed in other organs. Metabolic stability or clearance (CL), particularly hepatic clearance (CLh), is a factor in determining drug concentration in blood. Generally, the higher the metabolic stability of a compound is, the lower the clearance of the compound.
(§3) The metabolic stability of each of Compounds 1 and 2 were determined at a concentration of 1 μM in mouse, rat, dog, monkey and human hepatic microsomal preparations. The compound tested, microsomal protein, and co-factors were combined, in duplicate, and incubated under appropriate conditions. Aliquots were removed at 0, 10 and 30 min, centrifuged and the supernatants analyzed by LC/MS/MS. Based on the percentage of the test compound remaining relative to the 0 min time point, the in vitro elimination rate constant, in vitro half-life (t1/2) and in vitro intrinsic clearance (CLint) parameters were calculate which allow for predicting the CLh values.

[3] = In vitro metabolic stability in mouse liver microsomes; format: in vitro ADME; conditions: for microsomal CLint at 1 μM: mouse, liver microsomes
Description: as §2, §3

[4] = In vitro metabolic stability in dog liver microsomes; format: in vitro ADME; conditions: for microsomal CLint at 1 μM: dog, liver microsomes
Description: as §2, §3

[5] = In vitro metabolic stability in human liver microsomes; format: in vitro ADME; conditions: for CLint Rank: 1 μM
Description: as §2, §3

[6] = Solubility in buffer (pH 1); format: physicochemical; conditions: pH 1, aqueous buffer
Text: (§4) Certain physicochemical properties of the compounds, as measured, are provided below: […]

[7] = In vitro metabolic stability in rat liver microsomes; format: in vitro ADME; conditions: for microsomal CLint at 1 μM: rat, liver microsomes
Description: as §2, §3

[8] = Ionization constants (pKa1/pKa2); format: physicochemical; conditions: ionization constant for acidity
Text: as §4

T1 sequence (Q12809 whole entry): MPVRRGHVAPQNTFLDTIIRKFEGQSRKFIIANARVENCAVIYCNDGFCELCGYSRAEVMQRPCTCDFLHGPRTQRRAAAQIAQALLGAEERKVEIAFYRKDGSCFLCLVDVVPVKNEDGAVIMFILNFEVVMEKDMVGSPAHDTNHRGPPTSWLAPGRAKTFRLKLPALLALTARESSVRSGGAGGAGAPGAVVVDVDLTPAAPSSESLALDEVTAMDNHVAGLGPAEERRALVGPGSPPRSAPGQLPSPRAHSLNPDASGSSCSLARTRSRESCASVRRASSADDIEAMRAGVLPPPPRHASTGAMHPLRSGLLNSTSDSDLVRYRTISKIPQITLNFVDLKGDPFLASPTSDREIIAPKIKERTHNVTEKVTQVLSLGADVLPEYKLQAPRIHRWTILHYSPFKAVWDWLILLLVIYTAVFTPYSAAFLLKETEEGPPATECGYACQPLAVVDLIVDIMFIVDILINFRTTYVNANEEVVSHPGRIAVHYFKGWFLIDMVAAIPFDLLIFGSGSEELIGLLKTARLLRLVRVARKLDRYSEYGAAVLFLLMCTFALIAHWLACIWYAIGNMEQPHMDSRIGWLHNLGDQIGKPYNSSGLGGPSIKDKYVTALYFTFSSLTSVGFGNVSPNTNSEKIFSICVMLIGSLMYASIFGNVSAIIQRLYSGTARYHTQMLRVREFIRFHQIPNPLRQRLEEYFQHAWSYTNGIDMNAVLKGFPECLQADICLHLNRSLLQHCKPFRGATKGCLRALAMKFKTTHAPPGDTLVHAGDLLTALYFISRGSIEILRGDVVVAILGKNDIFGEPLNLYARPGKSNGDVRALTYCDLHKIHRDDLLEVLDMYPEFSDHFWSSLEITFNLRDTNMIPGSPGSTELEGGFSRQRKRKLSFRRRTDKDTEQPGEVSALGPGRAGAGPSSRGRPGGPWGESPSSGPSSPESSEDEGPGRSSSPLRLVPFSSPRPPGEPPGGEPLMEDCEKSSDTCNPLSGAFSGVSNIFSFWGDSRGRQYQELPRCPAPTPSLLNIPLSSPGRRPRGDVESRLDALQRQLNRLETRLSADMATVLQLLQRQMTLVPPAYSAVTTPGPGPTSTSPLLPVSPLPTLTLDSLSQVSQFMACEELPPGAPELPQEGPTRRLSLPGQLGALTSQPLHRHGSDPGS

Mechanism (Caco-2 cell monolayers) | Permeability Ranking (Caco-2 cell monolayers) | Papp A→B at 120 min, 10 μM [1] | Papp B→A at 120 min, 10 μM [1] | efflux ratio at 120 min, 10 μM [1] | half-life at 1 μM [2] | microsomal CLint at 1 μM ([2]; read-out: CLint) | half-life at 1 μM [3] | microsomal CLint at 1 μM ([3]; read-out: CLint) | half-life at 1 μM [4] | microsomal CLint at 1 μM ([4]; read-out: CLint) | half-life at 1 μM [5] | microsomal CLint at 1 μM [5] | CLint Rank [5] | solubility [6] | half-life at 1 μM [7] | microsomal CLint at 1 μM ([7]; read-out: CLint) | pKa1 [8] | pKa2 [8] | Compound | IC50 (hERG channels) | further results
Efflux (Efflux: B-A/A-B ≧3) | Low | 0.47 ×10⁻⁶ cm/s | 9.51 ×10⁻⁶ cm/s | 20.2 | 35.7 min | 38.9 µL/min/mg | 55.2 min | 25.1 µL/min/mg | 30.1 min | 46.1 µL/min/mg | 37.4 min | 37.1 µL/min/mg | low | 700 µM (≈ 404 µg/mL) | 46.8 min | 29.6 µL/min/mg | 4.5 | 3.2 | CC[N+]1([O-])CCN(c2ccc(Nc3cc(N(C)C(=O)Nc4c(Cl)c(OC)cc(OC)c4Cl)ncn3)cc2)CC1 [Compound 1, N-Oxide of 3-(2,6-Dichloro-3,5-dimethoxy-phenyl)-1-{6-[4-(4-ethyl-piperazin-1-yl)-phenylamino]-pyrimidin-4-yl}-1-methyl-urea] | 10.2 µM | CLint Rank ([2]; 1 μM): low; CLint Rank ([3]; 1 μM): low; CLint Rank ([4]; 1 μM): low; CLint Rank ([7]; 1 μM): low
Passive | Medium | 1.69 ×10⁻⁶ cm/s | 1.59 ×10⁻⁶ cm/s | 0.94 | 3.8 min | 364 µL/min/mg | 10.3 min | 134 µL/min/mg | 3.5 min | 395 µL/min/mg | 35.2 min | 39.4 µL/min/mg | low | 2000 µM (≈ 1120 µg/mL) | 15.4 min | 90.3 µL/min/mg | 8.2 | 3.4 | CCN1CCN(c2ccc(Nc3cc(N(C)C(=O)Nc4c(Cl)c(OC)cc(OC)c4Cl)ncn3)cc2)CC1 [Compound 2, 3-(2,6-Dichloro-3,5-dimethoxy-phenyl)-1-{6-[4-(4-ethyl-piperazin-1-yl)-phenylamino]-pyrimidin-4-yl}-1-methyl-urea] | 3 µM | microsomal CLint at 1 μM ([2]; read-out: CLint Rank): > 150 µL/min/mg; microsomal CLint at 1 μM ([3]; read-out: CLint Rank): 50 to 150 µL/min/mg; microsomal CLint at 1 μM ([4]; read-out: CLint Rank): > 150 µL/min/mg; microsomal CLint at 1 μM ([7]; read-out: CLint Rank): 50 to 150 µL/min/mg
